Assay results: patent US20110009332A1, “Therapeutic Treatment Of Wounds” (SOUTHWEST RESEARCH INSTITUTE, priority 2009, published 2011)

Molecular target: 20S proteasomes (Homo sapiens, UniProt P28074)
Assay: Inhibition of 20S proteasome enzyme activity
Format: biochemical
Details: 0 nM to 10,000 nM, FIGS. 7-9
Experimental: The IC50 may be understood as the amount of a particular substance/molecule needed to inhibit a given biological process in vitro by 50% and may be an indicator of the potency of a compound. The activity of the proteasome may be quantified by measuring the amount of fluorescence produced by cleavage of a fluorogenic substrate, such as LLVY-AMC, which when released by proteasomal cleavage, may emit fluorescent light.
The enzyme activity of 20S proteasomes was measured upon increasing addition of the proteasome inhibitors PS-1, curcumin and genestein in concentrations ranging from 0 nM to 10,000 nM. In particular, FIG. 7 illustrates the inhibition of 20S proteasomes upon the addition of PS-1. […] FIG. 8 illustrates the inhibition of the 20S proteasomes upon the addition of curcumin. […] FIG. 9 illustrates the inhibition of the 20S proteasomes upon the addition of genestein.

Q: How did the “enzyme activity of 20S proteasomes with increasing inhibitor concentration (in words)” value turn out when `O=c1c(-c2ccc(O)cc2)coc2cc(O)cc(O)c12` [genestein] was run?
A: The value was “relatively smaller decrease in enzyme activity”.
